# Patent US20140349955A1, “USE OF FLUORINE-CONTAINING WATER SOLUBLE PLATINUM COMPLEX IN PREPARING DRUGS FOR PREVENTION AND TREATMENT OF CANCERS” (GUDUI BIOPHARMA TECHNOLOGY INC., priority 2011, published 2014)
# How the values were obtained:
# H460 [1] = assay: MTS cytotoxicity test, H460; type: cell-based; details: 96 h, read-out: IC50 value in human tumor cells
# Procedure: (§1) Containing 10% bovine fetal serum, 1 mM of sodium pyruvate, 2 mM of L-glutamine, 50 U/mL of penicillin, 50 μg/mL of streptomycin
# (§2) Human tumor cells: dul45-human prostate cancer; MCF-7-human breast cancer; SK0V3-human ovarian carcinoma, HT-29-human colon cancer; A549-human non-small cell lung cancer (adenocarcinoma), H460-human non-small cell lung cancer (large cell carcinoma), and animal tumor cells: L1210-mice leukemia cells used in the following activity test experiments were all purchased from Shanghai An Yan Commercial Trade Co., Ltd.
# (§3) MTS test method was used in cytotoxicity assay. The tumor cells of logarithmic phase were collected, and then the concentration of cell suspension was adjusted, 100 μL of the cell suspension was added to each well, the cells were placed at 1000-10000 cells/well (edge well filled with sterile PBS). Cells were incubated at 37° C. with 5% CO2 to make cell monolayer overspread the bottom of each well (96-well flat-bottomed microplate). 100 μL of different concentrations of the test compounds was added to each well. Each condition was measured in five replicates. The microplate was incubated at 37° C. with 5% CO2 for 96 h and checked with inverted microscope. MTS working reagent: To 2 mL of MTS (2 mg/mL, prepared by DPBS) was added 100 μL of PMS (1 mg/mL, prepared by DPBS). The cell culture medium was discarded after centrifugation, the cell culture plate was carefully washed 2-3 times with PBS. Before detecting the absorbance value (OD), to each sample containing well was added 100 μL of cell culture medium, then 20 μL of MTS working reagent was added. After incubation at 37° C. with 5% CO2 for 2 h, the OD (optical density) value was detected at 490 nm.
# (§4) Control group: the conditions are the same as the above without adding the active ingredient of antitumor agents, and the OD value was detected at 490 nm on the end of the experiment.
# (§5) The cell inhibiting rate of the drugs to tumor cell growth was calculated according to the following formula:
# (§6) 1) Cell viability (%)=OD of treated group/OD of control group×100%
# (§7) 2) The cell viabilities under the different drug concentrations were determined, and then plotted against drug concentration. The IC50 value is the corresponding concentration in the obtained curve when the cell viability was 50%.
# A549 [2] = assay: MTS cytotoxicity test, A549; type: cell-based; details: 96 h, read-out: IC50 value in human tumor cells
# Procedure: as §1, §2, §3, §4, §5, §6, §7
# HT29 [3] = assay: MTS cytotoxicity test, HT29; type: cell-based; details: 96 h, read-out: IC50 value in human tumor cells
# Procedure: as §1, §2, §3, §4, §5, §6, §7
# MCF7 [4] = assay: MTS cytotoxicity test, MCF7; type: cell-based; details: 96 h, read-out: IC50 value in human tumor cells
# Procedure: as §1, §2, §3, §4, §5, §6, §7
# SKOV3 = assay: MTS cytotoxicity test, SKOV3; type: cell-based; details: 96 h, read-out: IC50 value in human tumor cells
# Procedure: as §1, §2, §3, §4, §5, §6, §7
# DU145 [5] = assay: MTS cytotoxicity test, DU145; type: cell-based; details: 96 h, read-out: IC50 value in human tumor cells
# Procedure: as §1, §2, §3, §4, §5, §6, §7
# L1210 tumor cells = assay: Antitumor efficacy in L1210 tumor-bearing CDF1 mice (increase in life span); type: in vivo
# Procedure: In the following test, antitumor efficacy studies were performed using 8-9 weeks old female CDF1 mice, the average weight of the animal is 20-25 grams. L1210 tumor cells (about 10^5 cells per mouse) were inoculated intraperitoneally. The fluorine-containing water-soluble platinum complexes were used to treat the tumor-bearing animals and the efficacy was compared compared with the clinical platinum antitumor drugs. […] Drugs were administered intraperitoneally on day 1 and day 4 after tumor cell transplantation. The number of experimental animals in each group was 6.
# The experimental animals were purchased from Vital River Laboratory Animal Technology Co. Ltd., Tumor cells L1210-leukemia cells were purchased from Shanghai An Yan Commercial Trade Co. Ltd.
# The increase in life span (ILS) is calculated as follows:
# Wherein, St=the weighted median survival time of treated animals; Su=the weighted median survival time of untreated animals
# HT29 [6] = assay: Synergistic cytotoxicity test (MTS), HT29; type: cell-based, human; details: 96 h
# Procedure: (§8) Containing 10% bovine fetal serum, 1 mM of sodium pyruvate, 2 mM of L-glutamine, 50 U/mL of penicillin, 50 μg/ mL of streptomycin.
# as §2, with “du145-human” for “dul45-human”
# as §3, with “certain concentration solution of a mixture” for “different concentrations”, “fluorine-containing water-soluble platinum complex with other antitumor agents” for “test compounds”
# (§9) Each of above experiment was repeated five times, and the cell viability was calculated according to the mean OD values.
# (§10) Cell Viability (%)=(treated group OD value/control group OD value)×100
# (§11) Control group: the conditions are the same as the above without adding the tested drug mixture (100 μL of culture medium was added in stead), and finally the absorbance was measured at 490 nm to obtain the OD value of the tumor cells.
# (§12) Drug Group-1: only the fluorine-containing water-soluble platinum complex was added under the above conditions to obtain cell viability of tumor cells.
# (§13) Drug Group-2: only the other chemotherapeutic drug (active ingredient) was added under the above conditions to obtain cell viability of tumor cells.
# (§14) Drug Combination Group: the fluorine-containing water-soluble platinum complex and other chemotherapeutic drugs were added simultaneously under the above conditions to obtain cell viability of tumor cell. (2) Evaluation Method:
# (§15) When the fluorine-containing water-soluble platinum complexes used in combination with other chemotherapy drugs, the inhibition effect on cancer cell proliferation is enhanced or synergistic, and the effect was calculated using the following formula:
# (§16) Combination Effect (%)={[(A1-X)+(A2-X)]/(A1-A2)|}×100
# (§17) wherein, A1 is the cell viability of drug group-1, A2 is the cell viability of drug group-2, X is the cell viability of drug combination group, (A1-A2)| is the absolute value of the cell viability difference between the two groups.
# (§18) Calculated according to the above formula, when the results of [Combination Effect (%)]>+100%, that means the effect of inhibition on cell proliferation is enhanced or synergistic (3) Experimental Result: […]
# H460 [7] = assay: Synergistic cytotoxicity test (MTS), H460; type: cell-based, human; details: 96 h
# Procedure: as §8
# as §2, with “du145-human” for “dul45-human”
# as §3, with “certain concentration solution of a mixture” for “different concentrations”, “fluorine-containing water-soluble platinum complex with other antitumor agents” for “test compounds”
# as §9, §10, §11, §12, §13, §14, §15, §16, §17, §18
# A549 [8] = assay: Synergistic cytotoxicity test (MTS), A549; type: cell-based, human; details: 96 h
# Procedure: as §8
# as §2, with “du145-human” for “dul45-human”
# as §3, with “certain concentration solution of a mixture” for “different concentrations”, “fluorine-containing water-soluble platinum complex with other antitumor agents” for “test compounds”
# as §9, §10, §11, §12, §13, §14, §15, §16, §17, §18
# MCF7 [9] = assay: Synergistic cytotoxicity test (MTS), MCF7; type: cell-based, human; details: 96 h
# Procedure: as §8
# as §2, with “du145-human” for “dul45-human”
# as §3, with “certain concentration solution of a mixture” for “different concentrations”, “fluorine-containing water-soluble platinum complex with other antitumor agents” for “test compounds”
# as §9, §10, §11, §12, §13, §14, §15, §16, §17, §18
# DU145 [10] = assay: Synergistic cytotoxicity test (MTS), DU145; type: cell-based, human; details: 96 h
# Procedure: as §8
# as §2, with “du145-human” for “dul45-human”
# as §3, with “certain concentration solution of a mixture” for “different concentrations”, “fluorine-containing water-soluble platinum complex with other antitumor agents” for “test compounds”
# as §9, §10, §11, §12, §13, §14, §15, §16, §17, §18
# SK0V3 = assay: Synergistic cytotoxicity test (MTS), SKOV3; type: cell-based, human; details: 96 h
# Procedure: as §8
# as §2, with “du145-human” for “dul45-human”
# as §3, with “certain concentration solution of a mixture” for “different concentrations”, “fluorine-containing water-soluble platinum complex with other antitumor agents” for “test compounds”
# as §9, §10, §11, §12, §13, §14, §15, §16, §17, §18
# [11] = 50 mg/Kg i.p. on day 1 and day 4
# [12] = 100 mg/Kg i.p. on day 1 and day 4
# [13] = 200 mg/Kg i.p. on day 1 and day 4
# [14] = other chemotherapy drug (at its listed dosage) combined with Complex 2 (dosage: 1 μM)
# [15] = other chemotherapy drug (at its listed dosage) combined with Complex 3 (dosage: 1 μM)
# [16] = other chemotherapy drug (at its listed dosage) combined with Complex 5 (dosage: 1 μM)
# [17] = other chemotherapy drug (at its listed dosage) combined with Complex 6 (dosage: 1 μM)
compound,measurement,setting,value
O=C1[O][Pt]2([NH][C@@H]3CCCC[C@H]3[NH]2)[O]C(=O)C1(F)CCCOC1O[C@H](CO)[C@@H](O)[C@H](O)[C@H]1O (some centres unmarked) [Complex 3],IC50,H460 [1],10.1 µM
same,IC50,A549 [2],0.855 µM
same,IC50,HT29 [3],2.01 µM
same,IC50,MCF7 [4],0.923 µM
same,IC50,SKOV3,10.1 µM
same,IC50,DU145 [5],6.6 µM
O=C1[O][Pt]2([NH]C3CCCCC3[NH]2)[O]C(=O)C1(F)CCCOC1OC(CO)C(O)C(O)C1O (centres unmarked) [Complex 9],IC50,H460 [1],21.4 µM
same,ILS (%),L1210 tumor cells; [11],>400%
same,Survived Animals on Day 42,L1210 tumor cells; [11],6/6
same,Weight Changes (g),"L1210 tumor cells; 50 mg/Kg i.p. on day 1 and day 4, weight changes from the first day to the seventh day",+1.5 g
same,ILS (%),L1210 tumor cells; [12],>400%
same,Survived Animals on Day 42,L1210 tumor cells; [12],6/6
same,Weight Changes (g),"L1210 tumor cells; 100 mg/Kg i.p. on day 1 and day 4, weight changes from the first day to the seventh day",+0.1 g
same,ILS (%),L1210 tumor cells; [13],>400%
same,Survived Animals on Day 42,L1210 tumor cells; [13],6/6
same,Weight Changes,"L1210 tumor cells; 200 mg/Kg i.p. on day 1 and day 4, weight changes from the first day to the seventh day",-0.5 g
same,IC50,A549 [2],10.2 µM
same,IC50,HT29 [3],1.2 µM
same,IC50,MCF7 [4],6.71 µM
same,IC50,SKOV3,21.3 µM
same,IC50,DU145 [5],7.04 µM
"O=C1[O][Pt]2([NH][C@@H]3CCCC[C@H]3[NH]2)[O]C(=O)C1(F)CCOC1O[C@H](CO)[C@@H](O)[C@H](O)[C@H]1O (stereo partly drawn) [Complex 2, cis-[trans-(1R, 2R)-diaminocyclohexane] Pt (II) (1—O—D-glucoside-propane-3-fluoro-3,3-dicarb oxylate)]",IC50,H460 [1],9.87 µM
same,IC50,A549 [2],0.675 µM
same,IC50,HT29 [3],1.55 µM
same,IC50,MCF7 [4],0.656 µM
same,IC50,SKOV3,10 µM
same,IC50,DU145 [5],4.85 µM
CC(=O)O[C@H]1C(=O)[C@@]2(C)[C@H]([C@H](OC(=O)c3ccccc3)[C@]3(O)C[C@H](OC(=O)[C@H](O)[C@@H](NC(=O)c4ccccc4)c4ccccc4)C(C)=C1C3(C)C)[C@]1(OC(C)=O)CO[C@@H]1C[C@@H]2O [Paclitaxel],the effect of drug combination (Combination Effect),HT29 [6]; [14],⊚ (⊚ represents the effect of drug combination > 300%)
same,the effect of drug combination (Combination Effect),HT29 [6]; [15],⊚ (⊚ represents the effect of drug combination > 300%)
same,the effect of drug combination (Combination Effect),HT29 [6]; [16],⊚ (⊚ represents the effect of drug combination > 300%)
same,the effect of drug combination (Combination Effect),HT29 [6]; [17],○ (○ represents: 100% < the effect of drug combination < 300%)
same,the effect of drug combination (Combination Effect),H460 [7]; [16],⊚ (⊚ represents the effect of drug combination > 300%)
same,the effect of drug combination (Combination Effect),H460 [7]; [17],⊚ (⊚ represents the effect of drug combination > 300%)
same,the effect of drug combination (Combination Effect),A549 [8]; [14],⊚ (⊚ represents the effect of drug combination > 300%)
same,the effect of drug combination (Combination Effect),A549 [8]; [15],⊚ (⊚ represents the effect of drug combination > 300%)
same,the effect of drug combination (Combination Effect),MCF7 [9]; [14],⊚ (⊚ represents the effect of drug combination > 300%)
same,the effect of drug combination (Combination Effect),MCF7 [9]; [15],⊚ (⊚ represents the effect of drug combination > 300%)
same,the effect of drug combination (Combination Effect),MCF7 [9]; [16],⊚ (⊚ represents the effect of drug combination > 300%)
same,the effect of drug combination (Combination Effect),MCF7 [9]; [17],⊚ (⊚ represents the effect of drug combination > 300%)
same,the effect of drug combination (Combination Effect),DU145 [10]; [14],○ (○ represents: 100% < the effect of drug combination < 300%)
same,the effect of drug combination (Combination Effect),DU145 [10]; [15],⊚ (⊚ represents the effect of drug combination > 300%)
same,the effect of drug combination (Combination Effect),DU145 [10]; [16],⊚ (⊚ represents the effect of drug combination > 300%)
same,the effect of drug combination (Combination Effect),DU145 [10]; [17],⊚ (⊚ represents the effect of drug combination > 300%)
same,the effect of drug combination (Combination Effect),"SK0V3; other chemotherapy drug (at its listed dosage) combined with Complex 2 (dosage: 1 μM), SLOV3",⊚ (⊚ represents the effect of drug combination > 300%)
same,the effect of drug combination (Combination Effect),"SK0V3; other chemotherapy drug (at its listed dosage) combined with Complex 3 (dosage: 1 μM), SlOV3",⊚ (⊚ represents the effect of drug combination > 300%)
same,the effect of drug combination (Combination Effect),"SK0V3; other chemotherapy drug (at its listed dosage) combined with Complex 5 (dosage: 1 μM), SLOV3",⊚ (⊚ represents the effect of drug combination > 300%)
same,the effect of drug combination (Combination Effect),"SK0V3; other chemotherapy drug (at its listed dosage) combined with Complex 6 (dosage: 1 μM), SLOV3",⊚ (⊚ represents the effect of drug combination > 300%)
